These results are taken from patent publication US20260325533A1, “CDK INHIBITOR COMPOUNDS” (ALEKSIA THERAPEUTICS, INC., priority 2023, published 2026).

Molecules are shown by their SMILES. Where two headings read alike, the source gives them in different places.

Common to all, as to format: biochemical
In experiment [1] the target is CDK4/CCND3 (Homo sapiens, UniProt P11802). The experiment in a line: CDK4 homogeneous time-resolved fluorescence (HTRF) kinase assay. The settings on record: CDK4/CCND. In a few lines: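 Steps: compound plus 1.5 nM CDK4/CCND3, 20 min, 23 °C; add 1 mM ATP and 50 nM ULight-4E-BP1 (Thr37/46) peptide, 60 min; stop with 10 mM EDTA; add 2 nM Eu anti-phospho antibody, 60 min; read 665 nm. IC50 from 11-point half-log series starting 10 μM.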

Experiment [2] addresses CDK1/CCNB1 (Homo sapiens, UniProt P06493). As to the kind of experiment: CDK1 homogeneous time-resolved fluorescence (HTRF) kinase assay. The note with it: CDK1/CCNB. The essentials:
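Kinase activity is measured as Lance signal (665 nm, or 665/615 nm ratio) from europium-labelled anti-phospho-Thr37/46 antibody binding ULight-4E-BP1 peptide. Reactions contain 0.5 nM enzyme, 1 mM ATP, 1% DMSO and run 60 min at 23 °C before EDTA quench.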

The target in experiment [3] is CDK2/CCNE1 (Homo sapiens, UniProt P24941). The experiment in a line: CDK2 homogeneous time-resolved fluorescence (HTRF) kinase assay. The settings on record: CDK2/CCNE. The essentials: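 Compounds were titrated 11-point, half-log from typically 10 μM against 3 nM CDK2/cyclin E1 at 1 mM ATP, with a 20 min enzyme preincubation. Phosphorylation of 50 nM ULight-4E-BP1 peptide over 60 min at 23 °C was detected by europium anti-phospho antibody TR-FRET.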

In experiment [4] the target is CDK6/CCND1 (Homo sapiens, UniProt Q00534). The experiment in a line: CDK6 homogeneous time-resolved fluorescence (HTRF) kinase assay. The settings on record: CDK6/CCND. The essentials:
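Enzyme pre-incubated 20 min at 23 °C with compound, then reacted 60 min at 23 °C with 1 mM ATP and 50 nM ULight-4E-BP1 (Thr37/46) peptide; 1 nM enzyme, 1% DMSO. EDTA-stopped, Eu-anti-phospho antibody TR-FRET read (665 nm or 665/615 ratio); 11-point half-log titration from 10 μM gave IC50.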
Background: Time-resolved FRET reads energy transfer from a long-lived donor to a nearby acceptor.

[5] abbreviates: 25-250 nM marked x, read-out: CDK4/CCND IC50 25-250 nM.
The mark [6] stands for this setting: >250 nM marked x, read-out: CDK1/CCNB IC50 >250 nM.
Where [7] appears, read: <25 nM, read-out: CDK2/CCNE IC50 <25 nM.
Where [8] appears, read: >250 nM marked x, read-out: CDK6/CCND IC50 >250 nM.
Where [9] appears, read: 25-250 nM marked x, read-out: CDK1/CCNB IC50 25-250 nM.
Setting [10] is: 25-250 nM marked x, read-out: CDK6/CCND IC50 25-250 nM.
[11] abbreviates: x = IC50 25-250 nM, read-out: CDK4/CCND IC50 (25-250 nM).
The mark [12] stands for this setting: x = IC50 25-250 nM, read-out: CDK1/CCNB IC50 (25-250 nM).
Where [13] appears, read: x = IC50 <25 nM, read-out: CDK2/CCNE IC50 (<25 nM).
[14] abbreviates: x = IC50 25-250 nM, read-out: CDK6/CCND IC50 (25-250 nM).
Where [15] appears, read: x = IC50 >250 nM, read-out: CDK4/CCND IC50 (>250 nM column).
Where [16] appears, read: x = IC50 >250 nM, read-out: CDK6/CCND IC50 (>250 nM column).
Setting [17] is: x = IC50 >250 nM, read-out: CDK1/CCNB IC50 (>250 nM column).

Chain of CDK6/CCND1 (Q00534 whole entry): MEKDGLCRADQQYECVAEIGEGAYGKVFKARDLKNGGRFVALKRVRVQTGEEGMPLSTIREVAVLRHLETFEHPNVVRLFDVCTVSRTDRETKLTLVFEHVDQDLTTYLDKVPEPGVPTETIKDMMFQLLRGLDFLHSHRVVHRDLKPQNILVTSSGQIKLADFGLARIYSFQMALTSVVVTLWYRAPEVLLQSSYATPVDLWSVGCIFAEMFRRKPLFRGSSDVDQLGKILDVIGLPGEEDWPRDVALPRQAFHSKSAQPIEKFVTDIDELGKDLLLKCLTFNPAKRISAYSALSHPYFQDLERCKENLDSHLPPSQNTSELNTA
Chain of CDK6/CCND1 (P24385 whole entry partner): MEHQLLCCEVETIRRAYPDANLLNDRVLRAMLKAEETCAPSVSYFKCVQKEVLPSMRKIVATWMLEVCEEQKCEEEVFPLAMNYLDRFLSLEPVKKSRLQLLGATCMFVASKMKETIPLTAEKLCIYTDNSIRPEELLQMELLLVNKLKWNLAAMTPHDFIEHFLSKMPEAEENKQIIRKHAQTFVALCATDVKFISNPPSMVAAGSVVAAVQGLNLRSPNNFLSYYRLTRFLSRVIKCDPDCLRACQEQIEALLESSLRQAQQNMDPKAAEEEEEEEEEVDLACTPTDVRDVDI
Chain of CDK1/CCNB1 (P06493 whole entry): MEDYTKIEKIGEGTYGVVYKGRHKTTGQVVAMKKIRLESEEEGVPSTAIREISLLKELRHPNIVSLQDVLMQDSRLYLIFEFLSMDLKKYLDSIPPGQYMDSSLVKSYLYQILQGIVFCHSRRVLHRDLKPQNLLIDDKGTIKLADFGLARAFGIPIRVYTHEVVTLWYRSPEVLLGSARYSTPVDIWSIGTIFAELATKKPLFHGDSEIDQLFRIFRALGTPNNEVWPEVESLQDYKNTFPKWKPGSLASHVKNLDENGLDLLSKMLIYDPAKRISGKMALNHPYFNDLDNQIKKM
Chain of CDK1/CCNB1 (P14635 whole entry partner): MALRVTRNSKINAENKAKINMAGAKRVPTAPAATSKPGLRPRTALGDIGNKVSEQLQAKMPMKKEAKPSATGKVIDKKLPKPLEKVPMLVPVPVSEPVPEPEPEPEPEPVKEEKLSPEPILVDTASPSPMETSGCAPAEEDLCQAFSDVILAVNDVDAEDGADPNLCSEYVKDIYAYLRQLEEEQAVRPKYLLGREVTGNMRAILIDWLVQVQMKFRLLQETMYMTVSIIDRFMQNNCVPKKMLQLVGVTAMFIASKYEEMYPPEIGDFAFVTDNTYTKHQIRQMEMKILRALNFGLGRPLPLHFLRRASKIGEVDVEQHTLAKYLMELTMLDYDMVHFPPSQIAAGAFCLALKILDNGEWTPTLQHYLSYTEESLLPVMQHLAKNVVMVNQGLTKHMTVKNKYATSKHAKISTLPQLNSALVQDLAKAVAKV
Chain of CDK4/CCND3 (P11802 whole entry): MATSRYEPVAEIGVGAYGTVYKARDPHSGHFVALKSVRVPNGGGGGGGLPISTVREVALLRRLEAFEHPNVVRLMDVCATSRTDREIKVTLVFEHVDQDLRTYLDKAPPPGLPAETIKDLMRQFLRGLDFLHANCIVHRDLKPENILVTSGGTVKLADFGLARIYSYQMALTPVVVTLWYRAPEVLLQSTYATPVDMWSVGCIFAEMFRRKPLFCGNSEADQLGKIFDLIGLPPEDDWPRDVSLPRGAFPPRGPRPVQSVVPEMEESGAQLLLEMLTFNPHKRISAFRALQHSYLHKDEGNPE
Chain of CDK4/CCND3 (P30281 whole entry partner): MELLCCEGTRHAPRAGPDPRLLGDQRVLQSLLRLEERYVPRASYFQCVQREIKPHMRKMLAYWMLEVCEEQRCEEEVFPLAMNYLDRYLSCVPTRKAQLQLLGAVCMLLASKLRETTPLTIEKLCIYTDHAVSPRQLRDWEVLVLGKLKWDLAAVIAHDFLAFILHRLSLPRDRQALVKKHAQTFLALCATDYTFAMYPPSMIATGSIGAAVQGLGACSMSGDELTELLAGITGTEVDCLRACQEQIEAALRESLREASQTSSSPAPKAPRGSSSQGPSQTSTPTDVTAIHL

On to `CC(C)S(=N)(=O)c1ccc(Nc2cc3c(C#Cc4cc5c(cc4N)C(C)(C)C(=O)N5)nccc3cn2)cc1` (single isomer, unassigned) [Example 270, 5-amino-3,3-dimethyl-6-((7-((4-(propan-2-ylsulfonimidoyl)phenyl)amino)-2,6-naphthyridin-1-yl)ethynyl)indolin-2-one], for which the IC50 in experiment [1] (setting [5]) is 25 to 250 nM; in experiment [2] (setting [6]), over 250 nM; in experiment [3] (setting [7]), under 25 nM; in experiment [4] (setting [8]) it was over 250 nM.
As to `CC(C)S(=N)(=O)c1ccc(Nc2cc3c(C#Cc4ccc5c(c4)NC(=O)C5(C)CCO)nccc3cn2)cc1` (single isomer, unassigned) [Example 271, 3-(2-hydroxyethyl)-3-methyl-6-((7-((4-(propan-2-ylsulfonimidoyl)phenyl)amino)-2,6-naphthyridin-1-yl)ethynyl)indolin-2-one], the IC50 in experiment [1] (setting [5]) was 25 to 250 nM; in experiment [2] (setting [9]), 25 to 250 nM; in experiment [3] (setting [7]), under 25 nM; in experiment [4] (setting [10]), 25 to 250 nM.
In the case of `N=S(=O)(c1ccc(Nc2cc3c(C#Cc4ccc5c(c4)NC(=O)C54CC4)nccc3cn2)c(F)c1)C1COC1` (single isomer, unassigned) [Example 275, 6′-((7-((2-fluoro-4-(oxetane-3-sulfonimidoyl)phenyl)amino)-2,6-naphthyridin-1-yl)ethynyl)spiro[cyclopropane-1,3′-indolin]-2′-one], the IC50 in experiment [1] (setting [5]) is 25 to 250 nM; in experiment [2] (setting [6]), over 250 nM; in experiment [3] (setting [7]), under 25 nM; in experiment [4] (setting [8]) it was over 250 nM.
For `CC(C)S(=N)(=O)c1ccc(Nc2cc3c(C#Cc4ccc5c(c4)NC(=O)C5(C)O)nccc3cn2)cc1` (single isomer, unassigned) [Example 279, 3-hydroxy-3-methyl-6-((7-((4-(propan-2-ylsulfonimidoyl)phenyl)amino)-2,6-naphthyridin-1-yl)ethynyl)indolin-2-one], the IC50 in experiment [1] (setting [5]) is 25 to 250 nM; in experiment [2] (setting [9]), 25 to 250 nM; in experiment [3] (setting [7]), under 25 nM; in experiment [4] (setting [10]), 25 to 250 nM.
For the compound `COc1cc(S(=N)(=O)C2CC2)ccc1Nc1cc2c(C#Cc3ccc4c(c3)NC(=O)C43CCC3)nccc2cn1` (single isomer, unassigned) [Example 296, 6′-((7-((4-(cyclopropanesulfonimidoyl)-2-methoxyphenyl)amino)-2,6-naphthyridin-1-yl)ethynyl)spiro[cyclobutane-1,3′-indolin]-2′-one], the IC50 in experiment [1] (>250 nM marked x, read-out: CDK4/CCND IC50 >250 nM) was over 250 nM; in experiment [2] (setting [6]), over 250 nM; in experiment [3] (setting [7]), under 25 nM; in experiment [4] (setting [8]) it was over 250 nM.
Turning to `Cc1cc2c(cc1C#Cc1nccc3cnc(Nc4ccc(S(=N)(=O)C(C)C)cc4)cc13)NC(=O)C2(C)C` (single isomer, unassigned) [Example 315, 3,3,5-trimethyl-6-((7-((4-(propan-2-ylsulfonimidoyl)phenyl)amino)-2,6-naphthyridin-1-yl)ethynyl)indolin-2-one], the IC50 in experiment [1] (setting [5]) is 25 to 250 nM; in experiment [2] (setting [6]), over 250 nM; in experiment [3] (setting [7]), under 25 nM; in experiment [4] (setting [8]), over 250 nM.
As to `COCC1(COC)C(=O)Nc2cc(C#Cc3nccc4cnc(Nc5ccc(S(=N)(=O)C(C)C)cc5)cc34)ccc21` (single isomer, unassigned) [Example 321, 3,3-bis(methoxymethyl)-6-((7-((4-(propan-2-ylsulfonimidoyl)phenyl)amino)-2,6-naphthyridin-1-yl)ethynyl)indolin-2-one], the IC50 was 25 to 250 nM in experiment [1] (setting [5]), 25 to 250 nM in experiment [2] (setting [9]), under 25 nM in experiment [3] (setting [7]) and over 250 nM in experiment [4] (setting [8]).
`CC(C)S(=N)(=O)c1ccc(Nc2cc3c(C#Cc4ccc5c(c4)NC(=O)C5(C)CO)nccc3cn2)cc1` (single isomer, unassigned) [Example 328, 3-(hydroxymethyl)-3-methyl-6-((7-((4-(propan-2-ylsulfonimidoyl)phenyl)amino)-2,6-naphthyridin-1-yl)ethynyl)indolin-2-one]: the IC50 in experiment [1] (setting [5]) is 25 to 250 nM; in experiment [2] (setting [9]), 25 to 250 nM; in experiment [3] (setting [7]), under 25 nM; in experiment [4] (setting [8]), over 250 nM.
As for `CC1(O)C(=O)Nc2cc(C#Cc3nccc4cnc(Nc5ccc(S(C)(=O)=O)cc5)cc34)ccc21` (single isomer, unassigned) [Example 347, 3-hydroxy-3-methyl-6-((7-((4-(methylsulfonyl)phenyl)amino)-2,6-naphthyridin-1-yl)ethynyl)indolin-2-one], the IC50 in experiment [1] (setting [11]) is 25 to 250 nM; in experiment [2] (setting [12]) it was 25 to 250 nM; in experiment [3] (setting [13]), under 25 nM; in experiment [4] (setting [14]), 25 to 250 nM.
Consider `CC1(CO)C(=O)Nc2cc(C#Cc3nccc4cnc(Nc5ccc(S(C)(=O)=O)cc5)cc34)ccc21` (single isomer, unassigned) [Example 372, 3-(hydroxymethyl)-3-methyl-6-((7-((4-(methylsulfonyl)phenyl)amino)-2,6-naphthyridin-1-yl)ethynyl)indolin-2-one], for which the IC50 in experiment [1] (setting [11]) was 25 to 250 nM; in experiment [2] (setting [12]), 25 to 250 nM; in experiment [3] (setting [13]), under 25 nM; in experiment [4] (setting [14]) it was 25 to 250 nM.
For `CCC1(C)C(=O)Nc2cc(C#Cc3nccc4cnc(Nc5ccc(S(C)(=O)=O)cc5)cc34)ccc21` (single isomer, unassigned) [Example 388, 3-ethyl-3-methyl-6-((7-((4-(methylsulfonyl)phenyl)amino)-2,6-naphthyridin-1-yl)ethynyl)indolin-2-one], the IC50 in experiment [1] (setting [15]) was over 250 nM; in experiment [2] (setting [12]), 25 to 250 nM; in experiment [3] (setting [13]), under 25 nM; in experiment [4] (setting [16]) it was over 250 nM.
Turning to `CCS(=N)(=O)c1ccc(Nc2cc3c(C#Cc4ccc(=O)[nH]n4)nccc3cn2)cc1` (single isomer, unassigned) [Example 403, 6-((7-((4-(ethylsulfonimidoyl)phenyl)amino)-2,6-naphthyridin-1-yl)ethynyl)pyridazin-3(2H)-one], the IC50 was over 250 nM in experiment [1] (setting [15]), over 250 nM in experiment [2] (setting [17]), under 25 nM in experiment [3] (setting [13]) and over 250 nM in experiment [4] (setting [16]).
Consider `CS(=N)(=O)c1ccc(Nc2cc3c(C#Cc4ccc5oc(=O)[nH]c5c4)nccc3cn2)cc1` (single isomer, unassigned) [Example 483, 5-((7-((4-(S-methylsulfonimidoyl)phenyl)amino)-2,6-naphthyridin-1-yl)ethynyl)benzo[d]oxazol-2(3H)-one], for which the IC50 in experiment [1] (setting [11]) was 25 to 250 nM; in experiment [2] (setting [12]), 25 to 250 nM; in experiment [3] (setting [13]), under 25 nM; in experiment [4] (setting [14]), 25 to 250 nM.
For `CS(=N)(=O)c1ccc(Nc2cc3c(C#Cc4ccc(C#N)cc4)nccc3cn2)cc1` (single isomer, unassigned) [Example 511, 4-((7-((4-(S-methylsulfonimidoyl)phenyl)amino)-2,6-naphthyridin-1-yl)ethynyl)benzonitrile], the IC50 in experiment [1] (setting [15]) was over 250 nM; in experiment [2] (setting [17]) it was over 250 nM; in experiment [3] (x = IC50 25-250 nM, read-out: CDK2/CCNE IC50 (25-250 nM)) it was 25 to 250 nM; in experiment [4] (setting [16]), over 250 nM.
In the case of `Cc1c(-c2nccc3cnc(Nc4ccc(S(C)(=N)=O)cc4)cc23)ccc2nn(C)cc12` (single isomer, unassigned) [Example 545, (4-((5-(2,4-dimethyl-2H-indazol-5-yl)-2,6-naphthyridin-3-yl)amino)phenyl)(imino)(methyl)-λ^6-sulfanone], the IC50 was over 250 nM in experiment [1] (setting [15]), over 250 nM in experiment [2] (setting [17]), under 25 nM in experiment [3] (setting [13]) and 25 to 250 nM in experiment [4] (setting [14]).
